Numbers after ± are expanded uncertainties.
Experiments:
[1] = 298.15 K; 101.33 kPa; Liquid
[2] = refractive index (Na D-line) (dimensionless); details: 298.15 K; 101.33 kPa; Liquid; Standard Abbe refractometry

refractive index [2] | SMILES | mass density [1]
1.4595 ± 0.0009 | C=CC(C)(O)CCC=C(C)C (stereo not given) [3,7-dimethyl-1,6-octadien-3-ol] | 858.08 ± 2.2 kg/m3
1.3325 ± 0.0008 | O [water] | –

SMILES | refractive index [2] | mass density [1]
CCO [ethanol] | 1.3593 ± 0.0007 | 785.12 ± 0.31 kg/m3

Reference: the NIST ThermoML archive (doi:10.1016/j.fluid.2005.09.009)
